Measurements published in publication PMC6580635, “Neuropilin-1 drives tumor-specific uptake of chlorotoxin” (Cell Communication and Signaling : CCS, 2019).
Peptide text beside a SMILES is read from it. * marks the point of attachment. Biotin = O=C1N[C@H]2[C@H](CS[C@H]2CCCCC(=O)*)N1; Cam = NC(=O)C*

Columns and labels:
NRP1 [1] = biological target: T1, NRP1 (Homo sapiens, UniProt O14786); test: Bio-layer interferometry (Octet) binding of Cltx and derived peptides to NRP1; conditions: BLI; biotinylated peptides on streptavidin biosensors, NRP1 0 to 1750 nM; mean of 2 to 6 independent experiments; ns = no significant binding
T1 construct: purchased Sino Biological Inc. 10011-H02H
T1 sequence (O14786 22-644 isoform O14786-2 limits assumed): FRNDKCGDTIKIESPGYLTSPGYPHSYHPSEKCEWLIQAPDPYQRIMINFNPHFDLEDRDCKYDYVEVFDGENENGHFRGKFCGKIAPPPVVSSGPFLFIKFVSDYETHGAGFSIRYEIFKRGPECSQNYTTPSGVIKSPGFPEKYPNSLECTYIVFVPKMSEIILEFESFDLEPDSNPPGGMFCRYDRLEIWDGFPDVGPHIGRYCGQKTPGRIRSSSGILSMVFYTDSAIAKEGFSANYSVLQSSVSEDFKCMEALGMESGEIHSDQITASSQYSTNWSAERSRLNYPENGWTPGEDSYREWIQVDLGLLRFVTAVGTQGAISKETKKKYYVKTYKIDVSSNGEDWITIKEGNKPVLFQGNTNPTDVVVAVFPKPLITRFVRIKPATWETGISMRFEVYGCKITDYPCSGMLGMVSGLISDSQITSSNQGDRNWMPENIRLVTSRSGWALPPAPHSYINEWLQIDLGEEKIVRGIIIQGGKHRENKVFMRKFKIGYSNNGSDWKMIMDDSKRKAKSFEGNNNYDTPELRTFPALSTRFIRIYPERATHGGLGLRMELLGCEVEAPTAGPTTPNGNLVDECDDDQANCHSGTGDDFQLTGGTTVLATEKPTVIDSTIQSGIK
Method: Octet binding studies required biotinylation of Cltx and derived peptides for loading onto streptavidin biosensors. Trypsin, (Promega Cat# V5280) (~ 40 μg/mL) was added to Cltx biotinylated at K27 or N-terminus (10 mg/mL) and incubated for 24 h at 37 °C, pH 8.5. The resulting peptides were separated by preparative HPLC and peptide fragments were characterized by MALDI. Small linear Cltx-derived peptides were also synthesized by routine methods and were biotinylated at the N-terminus. In some cases, peptides were reduced with TCEP at pH 8 and the cysteine residues were capped using iodoacetamide.
Assessment of binding between NRP1and Cltx was performed by Bio-Layer Interferometry (BLI) using the Octet Red96 System (ForteBio, Pall). Cltx and derived fragments were captured on streptavidin biosensors (Cat# 18–5020) under approximately equivalent loading conditions; sensors were then quenched with EZ-Link Biocytin and washed in assay buffer (PBS, 1% BSA, 0.05% Tween20).

NRP1 [2] = biological target: T1, NRP1; test: BLI competition with biotinylated VEGF165 for binding to NRP1; conditions: NRP1 fixed at 390 nM, Cltx peptide 50 to 800 μmol/L
crayfish = test: Crayfish bioassay (neurotoxicity, paralysis); type: in vivo; conditions: 20 µg per injection, n=8 crayfish; Kaplan-Meier analysis
Method: The crayfish assay to determine bioactivity of Cltx was performed at ABC Labs (Columbia, MO, now EAG Labs) using an SOP generated by TransMolecular Inc. Cltx peptide (20 μg) in sterile water was injected through the ventral surface of the thorax in the region of the sub-esophageal ganglion of crayfish which were then subjected to physical challenge defined as multiple, continuous, gentle prods in random parts of the body from head to tail. The animal’s response is based on avoidance, ability to right itself, and clasping with chelae in a defensive manner. Time from injection to total incapacitation was recorded; total incapacitation is defined as the time when the tested crayfish is not responsive when physically challenged.

Neuropilin-1 (NRP1) = biological target: T2, Neuropilin-1 (NRP1) (UniProt O14786 22-856); test: BLI; affinity of NRP1 for VEGF given beside the peptides of Table 1; set-up for VEGF not told separately; conditions: both partners purified
T2 construct: The R&D Systems NRP1 Phe22-Lys644 (Cat# 3870-N1) was only a control in Western blots
T2 sequence (looked up): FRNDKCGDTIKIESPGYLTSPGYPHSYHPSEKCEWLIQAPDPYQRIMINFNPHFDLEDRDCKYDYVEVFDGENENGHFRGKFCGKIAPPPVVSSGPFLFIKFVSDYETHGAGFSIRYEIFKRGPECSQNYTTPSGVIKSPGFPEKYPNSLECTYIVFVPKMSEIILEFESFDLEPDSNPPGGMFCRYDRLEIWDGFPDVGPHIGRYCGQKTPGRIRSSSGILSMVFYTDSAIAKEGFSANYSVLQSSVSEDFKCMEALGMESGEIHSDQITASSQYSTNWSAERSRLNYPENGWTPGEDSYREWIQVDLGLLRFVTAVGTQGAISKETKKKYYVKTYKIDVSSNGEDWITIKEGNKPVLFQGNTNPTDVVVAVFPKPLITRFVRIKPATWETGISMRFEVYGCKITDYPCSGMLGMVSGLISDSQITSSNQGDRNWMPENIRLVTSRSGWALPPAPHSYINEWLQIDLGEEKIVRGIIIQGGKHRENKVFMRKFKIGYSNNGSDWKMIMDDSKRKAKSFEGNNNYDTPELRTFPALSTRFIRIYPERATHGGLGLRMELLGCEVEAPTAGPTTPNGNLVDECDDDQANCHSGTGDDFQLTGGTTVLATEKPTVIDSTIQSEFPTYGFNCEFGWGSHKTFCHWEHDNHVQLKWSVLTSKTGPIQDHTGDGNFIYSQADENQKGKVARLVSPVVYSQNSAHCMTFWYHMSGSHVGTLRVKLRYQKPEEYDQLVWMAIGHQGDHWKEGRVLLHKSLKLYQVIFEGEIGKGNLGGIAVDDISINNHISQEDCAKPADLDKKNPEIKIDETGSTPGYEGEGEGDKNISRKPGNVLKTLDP

Molecule: CSCC[C@H](NC(=O)CCCC[C@@H]1SC[C@@H]2NC(=O)N[C@@H]21)C(=O)N[C@H]1CSSC[C@@H](C(=O)N[C@@H](Cc2ccccc2)C(=O)N[C@H](C(=O)N[C@H](C(=O)N[C@@H](CC(=O)O)C(=O)N[C@@H](Cc2c[nH]cn2)C(=O)N[C@@H](CCC(N)=O)C(=O)N[C@@H](CCSC)C(=O)N[C@@H](C)C(=O)N[C@@H](CCCNC(=N)N)C(=O)O)[C@@H](C)O)[C@@H](C)O)NC(=O)[C@@H]2CCCN2C(=O)[C@H](CCSC)NC1=O [C00003]
- Kd (NRP1 [1]): 167 nM

Molecule: Chlorotoxin [Cltx-CONH2]
- Competition with biotinylated VEGF for binding to NRP1 (NRP1 [2]): not
- Median time to paralysis (total incapacitation) (crayfish): 25 s

Molecule: CC(C)C[C@H](NC(=O)[C@H](CSCC(N)=O)NC(=O)[C@H](CCC(N)=O)NC(=O)[C@@H]1CCCN1C(=O)CNC(=O)[C@H](Cc1ccc(O)cc1)NC(=O)CCCC[C@@H]1SC[C@@H]2NC(=O)N[C@@H]21)C(=O)N[C@@H](CSCC(N)=O)C(=O)N[C@@H](CCCNC(=N)N)C(=O)O [C00008] (Biotin-YGPQC(Cam)LC(Cam)R-OH)
- Kd (NRP1 [1]): 297 nM

Molecule: CC(C)C[C@H](NC(=O)[C@H](CSCC(N)=O)NC(=O)CCCC[C@@H]1SC[C@@H]2NC(=O)N[C@@H]21)C(=O)N[C@@H](CSCC(N)=O)C(=O)N[C@@H](CCCNC(=N)N)C(=O)O [C00011] (Biotin-C(Cam)LC(Cam)R-OH)
- Kd (NRP1 [1]): 335 nM

B1: Biotinylated VEGF165 (ligand)
chain: APMAEGGGQNHHEVVKFMDVYQRSYCHPIETLVDIFQEYPDEIEYIFKPSCVPLMRCGGCCNDEGLECVPTEESNITMQIMRIKPHQGQHIGEMSFLQHNKCECRPKKDRARQENPCGPCSERRKHLFVQDPQTCKCSCKNTDSRCKARQLELNERTCRCDKPRR
modifications: biotin
- Kd (Neuropilin-1 (NRP1)): ~50 nM
